Measured values: BindingDB's records for patent US11168088 (2021)

Biological target: Cyclin-dependent kinase 6/G1/S-specific cyclin-D1 (Homo sapiens, UniProt Q00534)
Sequence (P24385 whole entry): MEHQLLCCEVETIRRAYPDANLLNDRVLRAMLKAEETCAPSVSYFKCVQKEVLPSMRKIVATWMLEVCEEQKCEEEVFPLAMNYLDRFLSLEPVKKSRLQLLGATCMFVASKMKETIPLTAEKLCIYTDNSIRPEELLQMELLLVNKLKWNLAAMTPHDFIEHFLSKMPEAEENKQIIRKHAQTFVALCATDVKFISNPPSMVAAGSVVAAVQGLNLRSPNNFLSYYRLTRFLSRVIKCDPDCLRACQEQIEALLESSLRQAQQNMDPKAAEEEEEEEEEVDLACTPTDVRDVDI
Sequence (Q00534 whole entry): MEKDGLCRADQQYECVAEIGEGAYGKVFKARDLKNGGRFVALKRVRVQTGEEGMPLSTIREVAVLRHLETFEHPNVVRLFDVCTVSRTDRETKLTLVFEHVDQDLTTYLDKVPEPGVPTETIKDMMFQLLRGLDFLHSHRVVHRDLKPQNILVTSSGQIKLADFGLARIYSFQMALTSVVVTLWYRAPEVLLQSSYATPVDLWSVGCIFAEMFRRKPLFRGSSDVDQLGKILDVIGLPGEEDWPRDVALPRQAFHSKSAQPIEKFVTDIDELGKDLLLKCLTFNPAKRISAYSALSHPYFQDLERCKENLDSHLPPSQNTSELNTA

Structure (SMILES)	IC50
CC(C)c1nn(C)c2c1-c1nc(Nc3ccc(N4CCNCC4)cn3)ncc1C2 [US11168088, Compound P-16]	53 nM

Biological target: Cyclin-dependent kinase 2 (Homo sapiens, UniProt P24941)

Structure (SMILES)	IC50
Cc1c2c(nn1C)CCc1cnc(Nc3ccc(CN4CCN(C)CC4)cn3)nc1-2 [US11168088, Compound D1]	23 nM
CCN1CCN(Cc2ccc(Nc3ncc4c(n3)-c3c(nn(CC)c3C(C)C)CC4)nc2)CC1 [US11168088, Compound P-2]	896 nM
CCc1nc2c(n1C(C)C)-c1nc(Nc3ccc(CN4CCN(CC)CC4)cn3)ncc1C2 [US11168088, Compound P-5]	3000 nM
CCN1CCN(c2ccc(Nc3ncc4c(n3)-c3c(cnn3C(C)C)CC4)nc2)CC1 [US11168088, Compound P-12]	7980 nM
CC(C)n1ncc2c1-c1nc(Nc3ccc(N4CCNCC4)cn3)ncc1CC2 [US11168088, Compound P-25]	8520 nM
